These results are taken from patent US11634390B2, “Agricultural chemicals” (GLOBACHEM NV, priority 2016, dated 2023).

Format in all cases: in vivo
What all share (parameters): key to percentage increase in necrosis relative to the control: no detected effect at this concentration; a percentage increase in necrosis relative to the control of 0.1-50; b: a percentage increase in necrosis of 50-80; a percentage increase in necrosis of 80-100

One test deals with Echinochloa crus-galli. Put plainly: Herbicidal screen, post-emergence spray of seedlings in pots: Barnyard grass. As to conditions: assessed 10 days after treatment; for pest or weed control at 12.5 g/ha / pest or weed control at 25 g/ha / pest or weed control at 50 g/ha / pest or weed control at 100 g/ha: Echinochloa crus-galli, post-emergence, 240 h, read-out: percentage increase in necrosis relative to the control. The procedure: (§1) Compounds were screened at four concentrations (100, 50, 25 and 12.5 g/ha) against four weed species (Stellaria media—Chickweed; Abutilon theophrasti—velvetleaf; Amaranthus retroflexus—common amaranthus; Echinochloa crus-galli—Barnyard grass) and maize as a crop species. Seed were sown in 12.5 cm diameter pots (20 per pot for the weed species and 5 for maize). Seedlings were sprayed with 2 ml of compound two weeks after sowing, with 2 ml water used as the control. Each treatment was replicated three times. Plants were maintained at 20° C. and assessed 10 days after treatment. The assessment was based on the % plant in each pot showing growth. The data is presented in Table 1 in which d represents no detected effect at this concentration; c represents a percentage increase in necrosis relative to the control of 0.1-50; b represents a percentage increase in necrosis of 50-80; and a represents a percentage increase in necrosis of 80-100.

The next test relates to Abutilon theophrasti. Put plainly: Herbicidal screen, post-emergence spray of seedlings in pots: velvetleaf. Conditions: assessed 10 days after treatment; for pest or weed control at 12.5 g/ha / pest or weed control at 25 g/ha / pest or weed control at 50 g/ha / pest or weed control at 100 g/ha: Abutilon theophrasti, post-emergence, 240 h, read-out: percentage increase in necrosis relative to the control. The procedure: as §1

Another test relates to Stellaria media. Description: Herbicidal screen, post-emergence spray of seedlings in pots: Chickweed. Conditions: assessed 10 days after treatment; for pest or weed control at 12.5 g/ha / pest or weed control at 25 g/ha / pest or weed control at 50 g/ha / pest or weed control at 100 g/ha: Stellaria media, post-emergence, 240 h, read-out: percentage increase in necrosis relative to the control. The method, then: as §1

A further test relates to Amaranthus retroflexus. Description: Herbicidal screen, post-emergence spray of seedlings in pots: common amaranthus. As to conditions: assessed 10 days after treatment; for pest or weed control at 12.5 g/ha / pest or weed control at 25 g/ha / pest or weed control at 50 g/ha / pest or weed control at 100 g/ha: Amaranthus retroflexus, post-emergence, 240 h, read-out: percentage increase in necrosis relative to the control. The method, then: as §1

A further test concerns maize. Put plainly: Herbicidal screen, post-emergence spray of seedlings in pots: crop species. Conditions: assessed 10 days after treatment; for plant injury at 12.5 g/ha / plant injury at 25 g/ha / plant injury at 50 g/ha / plant injury at 100 g/ha: Zea mays, post-emergence, 240 h, read-out: percentage increase in necrosis relative to the control. The procedure:
as §1

Consider `Cn1c(C(F)(F)F)cc(=O)n(-c2cc(C(=O)NS(=O)(=O)C3CC3)c(F)cc2F)c1=O` [Example 8, N-(Cyclopropylsulfonyl)-2,4-difluoro-5-(3-methyl-2,6-dioxo-4-(trifluoromethyl)-3,6-dihydropyrimidin-1(2H)-yl)benzamide], for which the pest or weed control at 12.5 g/ha in the test on Echinochloa crus-galli (12.5 g/ha), with Abutilon theophrasti (12.5 g/ha), with Stellaria media (12.5 g/ha) and in the test on Amaranthus retroflexus (12.5 g/ha) was 0.1 to 50% each time. The pest or weed control at 25 g/ha in the test on Echinochloa crus-galli (25 g/ha), in the test on Abutilon theophrasti, in the test on Stellaria media (25 g/ha) and in the test with Amaranthus retroflexus (25 g/ha) was 0.1 to 50% in each case. The pest or weed control at 50 g/ha was 50 to 80% in the test with Echinochloa crus-galli, 50 to 80% in the test with Abutilon theophrasti, 0.1 to 50% with Stellaria media (50 g/ha) and 80 to 100% with Amaranthus retroflexus. For the same compound, the pest or weed control at 100 g/ha in the test on Echinochloa crus-galli was 50 to 80%; with Abutilon theophrasti, 50 to 80%; in the test with Stellaria media, 50 to 80%; in the test with Amaranthus retroflexus, 80 to 100%. Moreover, the plant injury at 12.5 g/ha in the test on maize (12.5 g/ha) was 0.1 to 50%. For the same compound, in the test on maize (25 g/ha), the plant injury at 25 g/ha lay within 0.1 to 50%. For the same compound, in the test with maize, the plant injury at 50 g/ha is 0.1 to 50%. In the test with maize, the plant injury at 100 g/ha was 0.1 to 50%.

For the compound `Cn1c(C(F)(F)F)cc(=O)n(-c2cc(C(=O)NS(=O)(=O)C3CCS(=O)(=O)C3)c(Cl)cc2F)c1=O` (centres unmarked) [Example 10, 2-Chloro-N-((1,1-dioxidotetrahydrothiophen-3-yl)sulfonyl)-4-fluoro-5-(3-methyl-2,6-dioxo-4-(trifluoromethyl)-3,6-dihydropyrimidin-1(2H)-yl)benzamide], the pest or weed control at 12.5 g/ha fell in the range of 0.1 to 50% with Echinochloa crus-galli (12.5 g/ha), 0.1 to 50% in the test on Abutilon theophrasti (12.5 g/ha), 0.1 to 50% with Stellaria media (12.5 g/ha) and 50 to 80% with Amaranthus retroflexus (12.5 g/ha). Besides, the pest or weed control at 25 g/ha in the test on Echinochloa crus-galli (25 g/ha) fell in the range of 0.1 to 50%; with Abutilon theophrasti it was 0.1 to 50%; in the test with Stellaria media (25 g/ha), 0.1 to 50%; in the test on Amaranthus retroflexus (25 g/ha), 50 to 80%. Besides, the pest or weed control at 50 g/ha with Echinochloa crus-galli was 0.1 to 50%; with Abutilon theophrasti it was 0.1 to 50%; in the test on Stellaria media (50 g/ha), 0.1 to 50%; in the test with Amaranthus retroflexus, 50 to 80%. Moreover, the pest or weed control at 100 g/ha in the test with Echinochloa crus-galli was 0.1 to 50%; in the test on Abutilon theophrasti, 0.1 to 50%; with Stellaria media, 0.1 to 50%; in the test on Amaranthus retroflexus, 50 to 80%. For the same compound, in the test with maize (12.5 g/ha), the plant injury at 12.5 g/ha was in the range of 0.1 to 50%. Besides, in the test with maize (25 g/ha), the plant injury at 25 g/ha fell in the range of 0.1 to 50%. For the same compound, in the test with maize, the plant injury at 50 g/ha is 0.1 to 50%. The plant injury at 100 g/ha with maize lay within 0.1 to 50%.

In the case of `Cn1c(C(F)(F)F)cc(=O)n(-c2cc(C(=O)NS(=O)(=O)C3CC3)c(Cl)cc2F)c1=O` [Example 12, 2-Chloro-N-(cyclopropylsulfonyl)-4-fluoro-5-(3-methyl-2,6-dioxo-4-(trifluoromethyl)-3,6-dihydropyrimidin-1(2H)-yl)benzamide], the pest or weed control at 12.5 g/ha with Echinochloa crus-galli (12.5 g/ha) fell in the range of 0.1 to 50%; with Abutilon theophrasti (12.5 g/ha) it was 0.1 to 50%; in the test on Stellaria media (12.5 g/ha), 0.1 to 50%; in the test on Amaranthus retroflexus (12.5 g/ha) it was 50 to 80%. The pest or weed control at 25 g/ha with Echinochloa crus-galli (25 g/ha) lay in the range of 0.1 to 50%; in the test with Abutilon theophrasti it was 0.1 to 50%; in the test with Stellaria media (25 g/ha), 0.1 to 50%; in the test on Amaranthus retroflexus (25 g/ha) it was 50 to 80%. Further, the pest or weed control at 50 g/ha with Echinochloa crus-galli fell in the range of 0.1 to 50%; with Abutilon theophrasti it was 0.1 to 50%; in the test on Stellaria media (50 g/ha) it was 0.1 to 50%; in the test on Amaranthus retroflexus it was 80 to 100%. In addition, the pest or weed control at 100 g/ha in the test with Echinochloa crus-galli was 0.1 to 50%; in the test on Abutilon theophrasti, 50 to 80%; in the test with Stellaria media it was 0.1 to 50%; with Amaranthus retroflexus, 80 to 100%. Further, the plant injury at 12.5 g/ha in the test on maize (12.5 g/ha) fell in the range of 0.1 to 50%. Besides, the plant injury at 25 g/ha in the test on maize (25 g/ha) was 0.1 to 50%. Also, in the test with maize, the plant injury at 50 g/ha lay within 0.1 to 50%. Besides, the plant injury at 100 g/ha with maize fell in the range of 0.1 to 50%.

As to `Cn1c(C(F)(F)F)cc(=O)n(-c2cc(C(=O)NS(=O)(=O)C3CC3)ccc2F)c1=O` [Example 15, N-(Cyclopropylsulfonyl)-4-fluoro-3-(3-methyl-2,6-dioxo-4-(trifluoromethyl)-3,6-dihydropyrimidin-1(2H)-yl)benzamide], the “percentage increase in necrosis relative to the control” value with Echinochloa crus-galli (12.5 g/ha), in the test on Echinochloa crus-galli (25 g/ha), in the test with Abutilon theophrasti (12.5 g/ha), in the test with Stellaria media (12.5 g/ha), with Stellaria media (25 g/ha) and with Stellaria media (50 g/ha) was “d” throughout. The “percentage increase in necrosis relative to the control” value in the test with Amaranthus retroflexus (12.5 g/ha), in the test with Amaranthus retroflexus (25 g/ha), in the test with maize (12.5 g/ha) and with maize (25 g/ha) was “d” throughout. Besides, the pest or weed control at 50 g/ha lay in the range of 0.1 to 50% in the test with Echinochloa crus-galli, 50 to 80% in the test on Abutilon theophrasti and 50 to 80% in the test on Amaranthus retroflexus. The pest or weed control at 100 g/ha is 0.1 to 50% with Echinochloa crus-galli, 50 to 80% in the test with Abutilon theophrasti, 0.1 to 50% in the test on Stellaria media and 50 to 80% in the test on Amaranthus retroflexus. Also, in the test with Abutilon theophrasti, the pest or weed control at 25 g/ha was in the range of 0.1 to 50%. In addition, in the test with maize, the plant injury at 50 g/ha fell in the range of 0.1 to 50%. Moreover, the plant injury at 100 g/ha in the test with maize lay within 0.1 to 50%.
